Results from patent US9216999B2, “Substituted pyrrolo[2,3-h][1,6]naphthyridines and compositions thereof as JAK inhibitors” (priority 2011, dated 2015).
Read-outs that look alike come from different tables or passages of the source.

Key:
Format in all cases: biochemical
[1] = biological target: JAK1 (Homo sapiens (Human), UniProt P23458); experiment: Enzyme assay (Assay Example^a 1), JAK1; settings: ATP 100 μM
[2] = biological target: JAK2 (Homo sapiens (Human), UniProt O60674); experiment: Enzyme assay (Assay Example^a 1), JAK2
[3] = biological target: JAK3 (Homo sapiens (Human), UniProt P52333); experiment: Enzyme assay (Assay Example^a 1), JAK3
[4] = biological target: Tyk2 (Homo sapiens (Human), UniProt P29597); experiment: Enzyme assay (Assay Example^a 1), Tyk2; settings: ATP 100 μM
Chain of Tyk2 (P29597 whole entry): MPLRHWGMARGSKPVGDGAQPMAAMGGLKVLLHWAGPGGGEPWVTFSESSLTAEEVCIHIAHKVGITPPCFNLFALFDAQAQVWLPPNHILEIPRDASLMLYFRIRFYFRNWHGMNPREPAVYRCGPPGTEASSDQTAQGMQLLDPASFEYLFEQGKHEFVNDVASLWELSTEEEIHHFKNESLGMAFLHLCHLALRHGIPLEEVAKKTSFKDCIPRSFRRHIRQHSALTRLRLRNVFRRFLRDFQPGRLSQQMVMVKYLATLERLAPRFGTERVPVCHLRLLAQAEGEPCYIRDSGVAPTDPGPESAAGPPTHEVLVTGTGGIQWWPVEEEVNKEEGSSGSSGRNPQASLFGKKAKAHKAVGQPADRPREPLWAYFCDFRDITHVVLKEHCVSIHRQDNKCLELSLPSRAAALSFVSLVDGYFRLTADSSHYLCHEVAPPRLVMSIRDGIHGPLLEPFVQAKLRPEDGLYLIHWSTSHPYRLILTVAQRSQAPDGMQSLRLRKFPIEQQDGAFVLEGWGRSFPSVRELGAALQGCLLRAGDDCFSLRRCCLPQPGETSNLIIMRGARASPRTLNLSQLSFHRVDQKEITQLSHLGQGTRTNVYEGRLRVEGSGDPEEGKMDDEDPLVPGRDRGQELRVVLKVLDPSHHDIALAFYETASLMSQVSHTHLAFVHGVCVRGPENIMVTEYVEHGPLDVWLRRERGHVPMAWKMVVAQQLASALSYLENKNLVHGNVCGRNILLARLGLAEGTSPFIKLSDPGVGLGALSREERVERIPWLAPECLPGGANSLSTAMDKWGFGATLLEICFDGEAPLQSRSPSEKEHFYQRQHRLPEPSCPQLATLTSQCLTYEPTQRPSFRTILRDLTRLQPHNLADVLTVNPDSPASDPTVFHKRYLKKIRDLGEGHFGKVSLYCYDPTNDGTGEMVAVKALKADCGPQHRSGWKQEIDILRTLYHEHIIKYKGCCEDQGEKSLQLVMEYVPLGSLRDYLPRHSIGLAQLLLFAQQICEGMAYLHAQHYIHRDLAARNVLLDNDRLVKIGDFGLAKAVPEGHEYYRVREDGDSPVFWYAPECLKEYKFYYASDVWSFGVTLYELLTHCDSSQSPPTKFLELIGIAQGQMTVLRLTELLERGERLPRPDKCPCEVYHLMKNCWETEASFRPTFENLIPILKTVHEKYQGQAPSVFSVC

Chain of JAK3 (P52333 whole entry): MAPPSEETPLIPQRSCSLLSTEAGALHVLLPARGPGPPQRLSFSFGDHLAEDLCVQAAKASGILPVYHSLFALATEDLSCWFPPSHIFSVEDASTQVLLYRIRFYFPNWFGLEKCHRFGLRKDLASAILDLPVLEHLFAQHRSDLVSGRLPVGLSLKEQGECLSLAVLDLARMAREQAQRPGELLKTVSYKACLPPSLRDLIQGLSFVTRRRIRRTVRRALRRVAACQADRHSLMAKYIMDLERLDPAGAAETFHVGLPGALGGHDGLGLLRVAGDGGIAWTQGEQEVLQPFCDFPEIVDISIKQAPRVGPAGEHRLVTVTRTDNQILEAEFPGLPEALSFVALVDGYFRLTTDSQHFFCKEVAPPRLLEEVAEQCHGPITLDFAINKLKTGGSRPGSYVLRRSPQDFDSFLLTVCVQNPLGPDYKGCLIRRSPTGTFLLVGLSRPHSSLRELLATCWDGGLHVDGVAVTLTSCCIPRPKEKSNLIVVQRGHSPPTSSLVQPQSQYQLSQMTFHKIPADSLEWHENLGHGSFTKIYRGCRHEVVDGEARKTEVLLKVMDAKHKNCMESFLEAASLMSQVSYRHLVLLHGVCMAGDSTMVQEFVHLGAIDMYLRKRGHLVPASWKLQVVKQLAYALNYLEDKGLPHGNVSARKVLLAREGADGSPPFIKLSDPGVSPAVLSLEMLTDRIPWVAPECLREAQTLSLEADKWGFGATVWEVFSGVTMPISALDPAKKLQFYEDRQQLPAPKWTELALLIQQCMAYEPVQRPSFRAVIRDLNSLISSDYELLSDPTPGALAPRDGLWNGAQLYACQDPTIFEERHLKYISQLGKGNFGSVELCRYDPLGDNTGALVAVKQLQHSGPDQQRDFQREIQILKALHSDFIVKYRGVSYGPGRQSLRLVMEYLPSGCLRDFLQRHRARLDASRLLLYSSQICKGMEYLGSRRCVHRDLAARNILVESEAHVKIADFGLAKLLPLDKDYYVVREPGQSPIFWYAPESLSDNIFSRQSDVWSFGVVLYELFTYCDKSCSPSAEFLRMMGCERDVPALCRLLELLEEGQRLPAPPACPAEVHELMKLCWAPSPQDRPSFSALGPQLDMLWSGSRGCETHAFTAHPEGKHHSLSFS

| SMILES | IC50 [1] [µM] | IC50 ([2]; ATP 100 μM) [µM] | IC50 ([3]; ATP 100 μM) [µM] | IC50 [4] [µM] | IC50 [3] [µM] | IC50 ([1]; Table^a 154) [µM] | IC50 ([2]; ATP 100 μM, Table^a 154) [µM] | IC50 ([3]; ATP 100 μM, Table^a 154) [µM] | IC50 ([4]; Table^a 154) [µM] | IC50 [2] [µM] |
| --- | --- | --- | --- | --- | --- | --- | --- | --- | --- | --- |
| CSc1ccc(C(O)(CN[C@H]2CC[C@H](c3nnn4cnc5[nH]ccc5c34)CC2)C(F)(F)F)cc1 (stereo partly drawn) [386b, 3-{[trans-4-(7H-pyrrolo[3,2-e][1,2,3]triazolo[1,5-c]pyrimidin-1-yl)cyclohexyl]amino}-1,1,1-trifluoro-2-[4-(methylthio)phenyl]propan-2-ol] | 0.0017 | 0.027 | 0.28 | 0.39 |  |  |  |  |  |  |
| COc1ccc(C(O)(CN[C@H]2CC[C@H](c3nnn4cnc5[nH]ccc5c34)CC2)C(F)(F)F)cn1 (stereo partly drawn) [387b, 3-{[trans-4-(7H-pyrrolo[3,2-e][1,2,3]triazolo[1,5-c]pyrimidin-1-yl)cyclohexyl]amino}-1,1,1-trifluoro-2-(6-methoxypyridin-3-yl)propan-2-ol] | 0.0019 | 0.032 | 0.12 | 0.18 |  |  |  |  |  |  |
| COc1ccc(C(O)(CN[C@H]2CC[C@H](c3nnn4cnc5[nH]ccc5c34)CC2)C(F)(F)F)cc1 (stereo partly drawn) [388b, 3-{[trans-4-(7H-pyrrolo[3,2-e][1,2,3]triazolo[1,5-c]pyrimidin-1-yl)cyclohexyl]amino}-1,1,1-trifluoro-2-(4-methoxyphenyl)propan-2-ol] | 0.0012 | 0.025 | 0.26 | 0.21 |  |  |  |  |  |  |
| COc1ccc(C(O)(CN[C@H]2CC[C@H](c3nnn4cnc5[nH]ccc5c34)CC2)C(F)(F)F)cc1OC (stereo partly drawn) [390b, 3-{[trans-4-(7H-pyrrolo[3,2-e][1,2,3]triazolo[1,5-c]pyrimidin-1-yl)cyclohexyl]amino}-2-(3,4-dimethoxyphenyl)-1,1,1-trifluoropropan-2-ol] | 0.0024 | 0.089 | 0.52 | 0.36 |  |  |  |  |  |  |
| N#Cc1ccc(CCN[C@H]2CC[C@H](c3nnn4cnc5[nH]ccc5c34)CC2)cc1 [391b, 4-(2-{[trans-4-(7H-pyrrolo[3,2-e][1,2,3]triazolo[1,5-c]pyrimidin-1-yl)cyclohexyl]amino}ethyl)benzonitrile] | 0.018 | 0.39 | > 1 | 0.58 |  |  |  |  |  |  |
| c1cc2c(ncn3nnc([C@H]4CC[C@H](NC5CC5)CC4)c23)[nH]1 [392b, trans-N-cyclopropyl-4-(7H-pyrrolo[3,2-e][1,2,3]triazolo[1,5-c]pyrimidin-1-yl)cyclohexanamine] | 0.014 | 0.08 | 0.61 | 0.33 |  |  |  |  |  |  |
| N#CCN[C@H]1CC[C@H](c2nnn3cnc4[nH]ccc4c23)CC1 [393b, 2-{[trans-4-(7H-pyrrolo[3,2-e][1,2,3]triazolo[1,5-c]pyrimidin-1-yl)cyclohexyl]amino}acetonitrile] | 0.0062 | 0.03 | 0.79 | 0.38 |  |  |  |  |  |  |
| N#CCCN[C@H]1CC[C@H](c2nnn3cnc4[nH]ccc4c23)CC1 [394b, 3-{[trans-4-(7H-pyrrolo[3,2-e][1,2,3]triazolo[1,5-c]pyrimidin-1-yl)cyclohexyl]amino}propanenitrile] | 0.015 | 0.09 | > 1 | > 1 |  |  |  |  |  |  |
| FC(F)(F)CN[C@H]1CC[C@H](c2nnn3cnc4[nH]ccc4c23)CC1 [395b, trans-4-(7H-pyrrolo[3,2-e][1,2,3]triazolo[1,5-c]pyrimidin-1-yl)-N-(2,2,2-trifluoroethyl)cyclohexanamine] | 0.0022 | 0.01 | 0.61 | 0.15 |  |  |  |  |  |  |
| c1cc2c(ncn3nnc([C@H]4CC[C@H](NCC5CC5)CC4)c23)[nH]1 [396b, trans-N-(cyclopropylmethyl)-4-(7H-pyrrolo[3,2-e][1,2,3]triazolo[1,5-c]pyrimidin-1-yl)cyclohexanamine] | 0.022 | 0.19 | > 1 | 0.71 |  |  |  |  |  |  |
| CN(C)[C@H]1CC[C@H](c2nnn3cnc4[nH]ccc4c23)CC1 [397b, trans-N,N-dimethyl-4-(7H-pyrrolo[3,2-e][1,2,3]triazolo[1,5-c]pyrimidin-1-yl)cyclohexanamine] | 0.023 | 0.21 | > 1 | 0.8 |  |  |  |  |  |  |
| CN[C@H]1CC[C@H](c2nnn3cnc4[nH]ccc4c23)CC1 [398b, trans-N-methyl-4-(7H-pyrrolo[3,2-e][1,2,3]triazolo[1,5-c]pyrimidin-1-yl)cyclohexanamine] | 0.029 | 0.11 | > 1 | 0.75 |  |  |  |  |  |  |
| N#CC[C@H]1CC[C@@H](c2nnn3cnc4[nH]ccc4c23)CC1 [435a, 2-[cis-4-(7H-Pyrrolo[3,2-e][1,2,3]triazolo[1,5-c]pyrimidin-1-yl)cyclohexyl]acetonitrile] | 0.0054 | 0.021 | 0.72 | 0.17 |  |  |  |  |  |  |
| N#CC[C@H]1CC[C@H](c2nnn3cnc4[nH]ccc4c23)CC1 [435b, 2-[trans-4-(7H-Pyrrolo[3,2-e][1,2,3]triazolo[1,5-c]pyrimidin-1-yl)cyclohexyl]acetonitrile] | 0.00011 | 0.0025 | 0.032 | 0.0029 |  |  |  |  |  |  |
| CC(C#N)[C@H]1CC[C@@H](c2nnn3cnc4[nH]ccc4c23)CC1 (stereo partly drawn) [439a, 2-[cis-4-(7H-Pyrrolo[3,2-e][1,2,3]triazolo[1,5-c]pyrimidin-1-yl)cyclohexyl]propanenitrile] | 0.13 | 0.34 | > 1 | > 1 |  |  |  |  |  |  |
| CC(C#N)[C@H]1CC[C@H](c2nnn3cnc4[nH]ccc4c23)CC1 (stereo partly drawn) [439b, 2-[trans-4-(7H-Pyrrolo[3,2-e][1,2,3]triazolo[1,5-c]pyrimidin-1-yl)cyclohexyl]propanenitrile] | 0.0031 | 0.0067 | 0.33 | 0.025 |  |  |  |  |  |  |
| O=C(C[C@H]1CC[C@@H](c2nnn3cnc4[nH]ccc4c23)CC1)NCC(F)(F)F [442a, 2-[cis-4-(7H-Pyrrolo[3,2-e][1,2,3]triazolo[1,5-c]pyrimidin-1-yl)cyclohexyl]-N-2,2,2-trifluoroethylacetamide] | 0.027 | 0.061 | 0.52 | 0.79 |  |  |  |  |  |  |
| O=C(C[C@H]1CC[C@H](c2nnn3cnc4[nH]ccc4c23)CC1)NCC(F)(F)F [442b, 2-[trans-4-(7H-Pyrrolo[3,2-e][1,2,3]triazolo[1,5-c]pyrimidin-1-yl)cyclohexyl]-N-2,2,2-trifluoroethylacetamide] | 0.0032 | 0.014 | 0.1 | 0.88 |  |  |  |  |  |  |

| SMILES | IC50 [1] [µM] | IC50 ([2]; ATP 100 μM) [µM] | IC50 ([3]; ATP 100 μM) [µM] | IC50 [4] [µM] | IC50 [3] [µM] | IC50 ([1]; Table^a 154) [µM] | IC50 ([2]; ATP 100 μM, Table^a 154) [µM] | IC50 ([3]; ATP 100 μM, Table^a 154) [µM] | IC50 ([4]; Table^a 154) [µM] | IC50 [2] [µM] |
| --- | --- | --- | --- | --- | --- | --- | --- | --- | --- | --- |
| N#CCNC(=O)C[C@H]1CC[C@@H](c2nnn3cnc4[nH]ccc4c23)CC1 [443a, 2-[cis-4-(7H-Pyrrolo[3,2-e][1,2,3]triazolo[1,5-c]pyrimidin-1-yl)cyclohexyl]-N-(cyanomethyl)acetamide] | 0.026 | 0.06 | 0.73 | 0.54 |  |  |  |  |  |  |
| N#CCNC(=O)C[C@H]1CC[C@H](c2nnn3cnc4[nH]ccc4c23)CC1 [443b, 2-[trans-4-(7H-Pyrrolo[3,2-e][1,2,3]triazolo[1,5-c]pyrimidin-1-yl)cyclohexyl]-N-(cyanomethyl)acetamide] | 0.01 | 0.03 | 0.34 | > 1 |  |  |  |  |  |  |
| Cc1ccccc1-c1nnn2cnc3[nH]ccc3c12 [compound 5] | 0.02 | 0.13 | 0.26 | 0.13 |  |  |  |  |  |  |
| c1cc2c(ncn3nnc(C4CCCCC4)c23)[nH]1 [compound 6] | 0.0038 | 0.012 | 0.15 | 0.046 |  |  |  |  |  |  |
| CC1CCCCC1c1nnn2cnc3[nH]ccc3c12 (stereo not drawn) [compound 7] | 0.0042 | 0.012 |  | 0.056 | 0.055 |  |  |  |  |  |
| S=c1[nH]c(C2CCCCC2)c2c3cc[nH]c3ncn12 [compound 8] | 0.02 | 0.03 | 0.43 | 0.036 |  |  |  |  |  |  |
| O=c1[nH]c(C2CCCCC2)c2c3cc[nH]c3ncn12 [compound 9] | 0.03 | 0.046 |  | 0.078 | 0.43 |  |  |  |  |  |
| FC(F)(F)c1ccc(CCN2CCC(c3nnn4cnc5[nH]ccc5c34)CC2)cc1 [compound 42] |  |  |  |  |  | 0.082 | 0.41 | > 1 | > 1 |  |
| c1csc(CN2CCC(c3nnn4cnc5[nH]ccc5c34)CC2)n1 [compound 48] |  |  |  |  |  | 0.022 | 0.054 | 0.44 | 0.46 |  |
| O=C(N[C@H]1CC[C@H](c2nnn3cnc4[nH]ccc4c23)CC1)OCc1ccccc1 [compound 60] |  |  |  |  |  | 0.0051 |  | > 1 | 4.2 | 0.032 |
| c1cc2c(ncn3nnc(C4CCC4)c23)[nH]1 [compound 67] |  |  |  |  |  | 0.052 | 0.2 | 0.65 | 0.41 |  |
| N#CC1CCN(C[C@H]2CC[C@H](c3nnn4cnc5[nH]ccc5c34)CC2)CC1 [compound 89] |  |  |  |  |  | 0.025 | 0.2 | > 1 | 0.61 |  |
| Cc1ccc(CNC[C@H]2CC[C@H](c3nnn4cnc5[nH]ccc5c34)CC2)s1 [compound 106] |  |  |  |  | 0.28 | 0.0019 | 0.041 |  | 0.0036 |  |
| FCCNC[C@H]1CC[C@H](c2nnn3cnc4[nH]ccc4c23)CC1 [compound 107] |  |  |  |  | 0.28 | 0.0028 | 0.055 |  | 0.036 |  |
| CN(C[C@H]1CC[C@H](c2nnn3cnc4[nH]ccc4c23)CC1)c1ccc(C#N)cc1 [compound 108] |  |  |  |  |  | 0.0039 | 0.024 | 0.58 | 0.58 |  |
| Fc1ccc(CCNC[C@H]2CC[C@H](c3nnn4cnc5[nH]ccc5c34)CC2)cc1 [compound 111] |  |  |  |  |  | 0.0019 | 0.027 | 0.22 | 0.028 |  |
| CS(=O)(=O)c1ccc(CN2CCC(c3nnn4cnc5[nH]ccc5c34)CC2)cc1 [compound 156] |  |  |  |  |  | 0.0032 | 0.042 | 0.52 | 0.65 |  |
| Fc1cc(C(F)(F)F)ccc1CN1CCC(c2nnn3cnc4[nH]ccc4c23)CC1 [compound 157] |  |  |  |  |  | 0.002 | 0.02 | 0.24 | 0.31 |  |
